Results on 1 compound are retold here after patent US4351948A, “Imidazole hydrazone derivatives” (priority 1980, dated 1982).

Read-outs that look alike come from different tables or passages of the source.

Series [1] in a line: in vivo. To be noted: male mice, 7 day.
In series [2] the test system is platelet thromboxane generation. The series is described as follows: Inhibition of platelet thromboxane generation (TxB2, collagen-stimulated human platelet rich plasma). The class given is cell-based. To be noted: Homo sapiens, 10 min, read-out: Activity IC50 (50% inhibition of TxB2 generation).
Series [3] concerns B. fragilis ATCC 23745. In words: Antianaerobic activity, MIC by standard broth dilution method (Table II). The note with it: Bacteroides fragilis, ATCC23745, 24 h, read-out: Minimal Inhibitory Concentration (MIC). The class given is cell-based. An outline of the steps: (§1)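 MIC determined by standard broth dilution against single strains of the anaerobes and T. vaginalis.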
For series [4], the system named is T. vaginalis ATCC 30001. The description is as above. The class given is cell-based. To be noted: Trichomonas vaginalis, ATCC30001, 24 h, read-out: Minimal Inhibitory Concentration (MIC). An outline of the steps: as §1
In series [5] the test system is B. uniformis ATCC 8492. The series is described as above. The class given is cell-based. To be noted: Bacteroides uniformis, ATCC8492, 24 h, read-out: Minimal Inhibitory Concentration (MIC). The method in brief: as §1

As for `Cl.Clc1ccc(/C(Cn2ccnc2)=N\Nc2ccc(Cl)cc2Cl)cc1` [HC274, (E)-1-(4-chlorophenyl)-2-(1H-imidazol-1-yl)ethanone, 2,4-dichlorophenylhydrazone, hydrochloride], the LD50 at 168 h in series [1] (mouse, in vivo, iv, read-out: LD50) is 85 mg/kg. The LD12.5 in series [1] (p.o.) came out at 440 mg/kg. Also, the IC50 in series [2] came out at 15.9 µM. Further, the MIC in series [3] (Test 1) is 2.5 µg/mL; in series [3] (Test 2) it was 5 µg/mL; in series [3] (Test 3) it was 7.5 µg/mL; in series [4] (Test 1), 5 µg/mL; in series [4] (Test 2) it was 7.5 µg/mL; in series [4] (Test 3), over 10 µg/mL. In addition, the MIC in series [5] (Test 1) was determined as 2.5 µg/mL; in series [5] (Test 2), 2.5 µg/mL; in series [5] (Test 3) it was 5 µg/mL.
